# From patent US20010049441A1, “Azaindoles having serotonin receptor affnity” (Allelix Biopharmaceuticals, Inc., priority 1999, published 2001)
# Biological target: T1, 5-HT6 receptor (Homo sapiens, UniProt P50406)
# T1 construct: expressed in transfected cells
# Assay: Binding affinity for the 5-HT6 receptor (3H-LSD displacement, membranes of recombinant cells)
# Details: 100 nM of test compound; 3H-LSD (2 nM); 60 minute incubation at 37° C.; read-out: percent inhibition of binding of the radioligand for the 5-HT6 receptor
# Description: All of the compounds of the invention were evaluated using cell types receptive specifically to the 5-HT6 receptor (for cloning and characterization of the human 5-HT6 receptor see Kohen, et al. J. Neurochemistry, 66, 1996: 47-56). The assay protocol generally entailed the incubation of membranes prepared from cells expressing the 5-HT6 receptor with ^3H-LSD (2 nM). Increasing levels of the test compound were incubated with the radioligand and the membrane homogenates prepared from the recombinant cells. After a 60 minute incubation at 37° C., the incubation was terminated by vacuum filtration. The filters were washed with buffer and the filters were counted for radioactivity using liquid scintillation spectrometry. The affinity of the test compound for the 5-HT6 receptor was determined by computer-assisted analysis of the data and determining the amount of the compound necessary to inhibit 50% of the binding of the radioligand to the receptor. Concentrations ranging from 10^−11 M to 10^−5 M of the test compound were evaluated. […] Affinity for the 5-HT6 receptor is expressed as the amount (in percent) of binding of the radioligand that is inhibited in the presence of 100 nM of test compound. A greater percent inhibition indicates greater affinity for the 5-HT6 receptor.
# T1 sequence (P50406 whole entry): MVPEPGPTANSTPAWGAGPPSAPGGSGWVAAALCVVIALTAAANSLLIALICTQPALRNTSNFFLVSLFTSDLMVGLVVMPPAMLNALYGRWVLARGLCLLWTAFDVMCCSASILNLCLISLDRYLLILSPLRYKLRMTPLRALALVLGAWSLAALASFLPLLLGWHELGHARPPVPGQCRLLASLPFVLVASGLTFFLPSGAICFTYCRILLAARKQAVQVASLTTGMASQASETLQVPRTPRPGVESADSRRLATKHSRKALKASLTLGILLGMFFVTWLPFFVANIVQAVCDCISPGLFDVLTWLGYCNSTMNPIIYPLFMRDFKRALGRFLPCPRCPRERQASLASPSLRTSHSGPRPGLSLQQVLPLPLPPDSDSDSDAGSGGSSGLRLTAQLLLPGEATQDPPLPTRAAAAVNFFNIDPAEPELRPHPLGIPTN
row,inhibition at 0.1 µM [%],SMILES
1,> 80,"O=S(=O)(c1cccc2ccccc12)n1cc(C2CCN3CCCC3C2)c2ccncc21 (single isomer, unassigned) [3-(Octahydro-7-indolizinyl)-1-(1-naphthalenesulfonyl)-6-azaindole]"
2,> 80,"O=S(=O)(c1ccc2ccccc2c1)n1cc(C2CCN3CCCC3C2)c2cccnc21 (single isomer, unassigned) [3-(Octahydro-7-indolizinyl)-1-(2-naphthalenesulfonyl)-7-azaindole]"
3,> 80,O=S(=O)(c1cccc2ccccc12)n1cc(C2CCN3CCCC3C2)c2ncccc21 (stereo not shown) [3-(Octahydro-7-indolizinyl)-1-(1-naphthalenesulfonyl)-4-azaindole]
4,> 95,O=S(=O)(c1ccc2ccccc2c1)n1cc(C2CCN3CCCC3C2)c2ncccc21 (stereo not shown) [3-(Octahydro-7-indolizinyl)-1-(2-naphthalenesulfonyl)-4-azaindole]

# Continued, molecule first:
row,SMILES,inhibition at 0.1 µM [%]
1,"O=C(c1c(Cl)cccc1Cl)n1cc(C2=CCN3CCCC3C2)c2cccnc21 (stereo not shown) [1-(2,6-Dichlorobenzoyl)-3-(1,2,3,5,8,8a-hexahydro-7-indolizinyl)-7-azaindole]",> 80
2,"O=S(=O)(c1cccc2ccccc12)n1cc(C2=CCN3CCCC3C2)c2cnccc21 (stereo not shown) [3-(1,2,3,5,8,8a-Hexahydro-7-indolizinyl)-1-(1-naphthalenesulfonyl)-5-azaindole]",> 95
3,"O=S(=O)(c1ccc2ccccc2c1)n1cc(C2=CCN3CCCC3C2)c2cccnc21 (stereo not shown) [3-(1,2,3,5,8,8a-Hexahydro-7-indolizinyl)-1-(2-naphthalenesulfonyl)-7-azaindole]",> 90
4,"Cc1ccc(S(=O)(=O)n2cc(C3=CCN4CCCC4C3)c3cnccc32)cc1 (stereo not shown) [3-(1,2,3,5,8,8a-Hexahydro-7-indolizinyl)-1-(4-methylbenzenesulfonyl)-5-azaindole]",> 80
5,"O=S(=O)(c1ccccc1)n1cc(C2=CCN3CCCC3C2)c2cnccc21 (stereo not shown) [3-(1,2,3,5,8,8a-Hexahydro-7-indolizinyl)-1-benzenesulfonyl-5-azaindole]",> 90

# Biological target: T1, 5-HT6 receptor
# Assay: Functional assay: serotonin-induced adenyl cyclase activity (cAMP) in HEK 293 cells
# Assay type: cell-based
# Details: HEK 293 cells stably expressing human 5HT6 receptor; test compound (100 nM and 10 μM) along with serotonin; cAMP by EIA
# Description: The 5HT6 receptor responds to serotonin and other agonists by increasing adenyl cyclase mediated production of cyclic AMP. Particular test compounds were assayed for their effect on adenyl cyclase activity using the procedure described below.
# Compounds acting as antagonists at the 5HT6 receptor will antagonize the agonist effect of serotonin and thus, will block the serotonin-induced increase in adenyl cyclase activity.
# HEK 293 cells stably expressing the human 5HT6 receptor were plated in 6 well plates in DMEM (Dulbecco's Modified Eagle Medium)/F12 (Nutrient Mixture F12—Ham) media with 10% FCS (fetal calf serum) and G418 (Geneticen Disulfate, 500 ug/ml), and incubated at 37° C. in a CO2 incubator. The cells were allowed to grow to about 70% confluence before use in the assay.
# The culture medium of each well was removed, and the wells were washed once with serum free media. Then 2 ml of SFM+IBMX medium (SFM with 0.5 mM IBMX, 3-isobutyl-1-methylxanthine, 0.1% ascorbic acid and 10 mM pargyline) was added to each well and the wells were incubated at 37° C. for 10 min. Following incubation, the SFM+IBMX medium was removed from each well and fresh SFM+IBMX media was added to the wells separately with one of a) serotonin (1 μM final concentration); b) test compound (100 nM and 10 μM, to test for agonist activity); and c) test compound (100 nM and 10 μM) along with serotonin ([…], to test for antagonist activity). Basal adenyl cyclase activity was determined from wells with only SFM+IBMX media added.
# The cells were then incubated at 37° C. for 30 minutes in a CO2 incubator. […] The pellets were discarded and the supernatants were stored at 4° C. until assayed for cAMP concentration. cAMP content for each extract was determined in duplicate by EIA (enzyme-immunoassay) using the Amersham Biotrak cAMP EIA kit (Amersham RPN 225). Final results were expressed as %basal response for agonists and % reversal of serotonin response for antagonists.
# The total stimulation of adenyl cyclase by serotonin (So) was determined as the difference in concentration of cAMP in the serotonin-treated cells (Cd) and the basal-treated cells (Cf).
# The net stimulation (S) of basal adenyl cyclase by an agonist test compound was determined as the difference in cAMP concentration in the drug-treated cell (C) and the basal-treated cells (Cf).
# The net stimulation (Ss) of basal adenyl cyclase by serotonin in the presence of an antagonist test compound was determined as the difference in cAMP concentration in the serontonin-drug-treated cells (Cs) and the basal-treated cells (Cf).
# The ability of the antagonist test compound to reverse the serotonin stimuation of adenyl cyclase activity (% reversal, %R) was determined by the formula: […]
row,SMILES,reversal of serotonin stimulation of adenyl cyclase (5-HT6 receptor antagonist behaviour)
1,"O=S(=O)(c1cccc2ccccc12)n1cc(C2=CCN3CCCC3C2)c2cnccc21 (stereo not shown) [3-(1,2,3,5,8,8a-Hexahydro-7-indolizinyl)-1-(1-naphthalenesulfonyl)-5-azaindole]",able to reverse the serotonin stimulation of adenyl cyclase
2,"O=S(=O)(c1cccc2ccccc12)n1cc(C2=CCN3CCCC3C2)c2cccnc21 (stereo not shown) [3-(1,2,3,5,8,8a-Hexahydro-7-indolizinyl)-1-(1-naphthalenesulfonyl)-7-azaindole]",able to reverse the serotonin stimulation of adenyl cyclase
3,"O=S(=O)(c1ccccc1)n1cc(C2=CCN3CCCC3C2)c2cnccc21 (stereo not shown) [3-(1,2,3,5,8,8a-Hexahydro-7-indolizinyl)-1-benzenesulfonyl-5-azaindole]",able to reverse the serotonin stimulation of adenyl cyclase
4,"O=S(=O)(c1ccccc1)n1cc(C2=CCN3CCCC3C2)c2cccnc21 (stereo not shown) [3-(1,2,3,5,8,8a-Hexahydro-7-indolizinyl)-1-benzenesulfonyl-7-azaindole]",able to reverse the serotonin stimulation of adenyl cyclase
